Results as given in patent US8003663B2, “Pyrazolo[3,4-b]pyridine compounds, and their use as PDE4 inhibitors” (Glaxo Group Limited, priority 2006, dated 2011).
Entries after “also recorded” stand apart in the source; their conditions may differ. Structures can show the parent of a compound that is named as a salt.

Key:
[1] = tested on: LPS-induced pulmonary neutrophilia in rats; experiment: In Vivo Assay 1: LPS induced pulmonary neutrophilia in rats, intratracheally administered PDE4 inhibitors; parameters: species or system rat; details: for percentage mean inhibition of LPS-induced pulmonary neutrophilia / arithmetic mean percentage inhibition of LPS-induced pulmonary neutrophilia: rat, about 2 hours prior to LPS; for percentage mean inhibition of LPS-induced pulmonary neutrophilia: i.t. aqueous solution; for arithmetic mean percentage inhibition of LPS-induced pulmonary neutrophilia: i.t. dry powder blended in lactose; for duration of action: preliminary tests
Text: This assay is an animal model of acute inflammation in the lung—specifically neutrophilia induced by lipopolysaccharide (LPS)—and allows the study of putative inhibition of such neutrophilia (anti-inflammatory effect) by an intratracheally (i.t.) administered PDE4 inhibitor (“drug”). The PDE4 inhibitors are suitably in dry powder, aqueous solution or aqueous suspension form. I.t. administration is one model of inhaled administration, allowing topical delivery to the lung.
Animals: Male CD (Sprague Dawley Derived) rats supplied by Charles River, United Kingdom are housed in groups of 5 rats per cage, acclimatised after delivery for at least 7 days with bedding/nesting material regularly changed, fed on SDS diet R1 pelleted food given ad lib, and supplied with daily-changed pasteurised animal grade drinking water.
Device for dry powder administration: For these studies, a Penn Century DP-4 dry powder intratracheal (i.t.) delivery device (insufflator) is used for administration of a dry powder blend of vehicle (inhalation grade lactose) and the PDE4 inhibitor compound or salt of the invention (“drug”). Each device is numbered and the sample loading chamber is unscrewed from the main device and weighed. The i.t. delivery needle is also weighed. The drug+lactose blend or inhalation grade lactose (vehicle control) is then added to the sample chamber and this is then re-weighed. The sample chamber is fitted back on to the main device to prevent any drug being lost. This procedure is repeated for all of the Penn century devices to be used in the study (one separate device for each animal). After dosing to the animals, the sample chambers and needles are re-weighed in order to determine the amount of sample that was expelled from the device.
Device for aqueous solution administration: A blunt dosing needle, whose forward end is slightly angled to the needle axis, is used, with a flexible plastic portex canula inserted into the needle. The portex cannula is inserted into the lumen of the blunt stainless steel dosing needle and this is carefully inserted into the back of the animal's throat and into the trachea via the larynx. A known volume (200 microliters) of the vehicle (0.2% Tween 80™ in saline) or of the solution (or suspension) drug composition is administered into the trachea using a plastic syringe that is attached to the portex cannula and dosing needle. A new internal cannula is used for each different drug group. After dosing, the needle is removed from the trachea and the animals are removed from the table and continually observed until they recover from the effects of anaesthesia. The animals are then returned to the holding cages and given free access to food and water, and are observed and any unusual behavioural changes noted. (Aqueous suspensions can be handled generally similarly.)
Drugs and Materials: Lipopolysaccharide (LPS) (Serotype:0127:B8, e.g. from Sigma, UK; e.g. L3129 prepared by phenol extraction) is dissolved in phosphate-buffered saline (PBS).
For dry powder, aqueous solution or aqueous suspension administration, PDE4 inhibitors are preferably used in size-reduced (e.g. micronised) form, for example according to the Micronisation Example(s) disclosed herein.
For dry powder administration of the drug, the PDE4 inhibitor compound or salt of the invention (drug) is administered as a dry powder blended with inhalation-grade (respiratory-grade) lactose, i.e. as a dry powder composition. The target quantity of dry powder composition administered i.t. to each animal is 2 mg. This remains constant throughout the studies. To achieve different doses, blends of the drug dry powder and lactose, containing different concentrations of the PDE4 inhibitor compound or salt of the invention (drug), are prepared. […]

[2] = cited from earlier work
[3] = cited from earlier work; remark: listed apart in the source
[4] = tested on: LPS-induced nasal neutrophilia in rats; experiment: In vivo assay 2: LPS induced nasal neutrophilia in rats, intranasally administered PDE4 inhibitors; details: rat, i.n. aqueous solution, about 30 minutes prior to LPS
Text: This assay is an animal model of acute inflammation in the nose—specifically neutrophilia induced by lipopolysaccharide (LPS)—and allows the study of putative inhibition of such neutrophilia (anti-inflammatory effect) by an intranasally (i.n.) administered PDE4 inhibitor (“drug”). The PDE4 inhibitor is preferably in the form of an aqueous suspension or aqueous solution. Bolus, i.n. administration allows topical delivery to the nose.
Animals: Male CD rats (Sprague Dawley derived), weighing between 300-350 g are supplied by Charles River, UK and transported to the test site. On arrival at the test site, the animals are housed in groups of 4 or 5 per cage and complete a minimum acclimatisation period of 7 days. The animals are housed in solid bottomed cages using grade 8 sawdust. The bedding and nesting materials are changed 3 times per week. Diet comprises SDS diet R1 pelleted food given ad lib. Pasteurised animal grade drinking water is supplied and changed daily.
Lipopolysaccharide (Serotype: 0127:B8, e.g. available from Sigma, UK; e.g. L3129 prepared by phenol extraction) is used for all studies and is dissolved in phosphate-buffered saline (PBS).
Tween 80™ (e.g. available from Sigma e.g. 023K 01575). A mixture of 0.2% Tween 80™ in phosphate buffered saline (PBS) is prepared as vehicle for solution compositions. The Sigma catalogue 2004-2005 and The Handbook of Pharmaceutical Excipients (HPE) 4th edition 2003 pp. 479-483 define Tween 80™ as a brand of polysorbate 80 (according to HPE, polysorbate 80 is also named polyoxyethylene 20 sorbitan monooleate, i.e. having been copolymerised with about 20 moles of ethylene oxide for each mole of sorbitol and/or sorbitol anhydrides used).
The PDE4 inhibitor compound or salt of the invention (“drug”) is preferably used in size-reduced (e.g. micronised) form, for example according to the Micronisation Example(s) disclosed herein.
A solution of compound (0.7 mg/ml) is generally prepared by adding 0.2% Tween 80™ in phosphate buffered saline (PBS) to a pre-weighed micronised sample of the drug. The solution composition is sonicated, e.g. for approximately 2 min, and is observed to be a solution (if it is a solution) by visual assessment. A fixed volume of 50 microliters (25 microliters into each nostril) of either the drug-containing solution composition or a saline/Tween 80™ vehicle is administered to all animals. Each animal weighs, on average, 350 g. To achieve a dose of 100 μg/kg (100 ug/kg), each animal receives a total of 35 μg (35 ug) of the drug. The dose volume is 50 microliters (25 microliters to each nostril), and therefore a concentration of 35 μg (ug) per 50 microliters (0.7 mg/ml) is prepared. To achieve lower dose concentrations, serial dilutions are prepared in saline/Tween 80™. […]

[5] = orally 500 ug once daily for 9 days; daily intranasal allergen provocation (pollen extracts); cited from earlier work

Structure (SMILES): CCc1nc2c(cnn2CC)c(NC2CCOCC2)c1CNC(=O)c1ccc(NC(=O)CCCCCCCN(C)CCO)cc1 [Example 1A1, N-{[1,6-Diethyl-4-(tetrahydro-2H-pyran-4-ylamino)-1H-pyrazolo[3,4-b]pyridin-5-yl]methyl}-4-({8-[(2-hydroxyethyl)(methyl)amino]octanoyl}amino)benzamide dihydrochloride]
- percentage mean inhibition of LPS-induced pulmonary neutrophilia ([1]; about 10 micrograms/kg, dihydrochloride): about 33%
- percentage mean inhibition of LPS-induced pulmonary neutrophilia ([1]; about 30 micrograms/kg, dihydrochloride): about 56%
- percentage mean inhibition of LPS-induced pulmonary neutrophilia ([1]; about 100 micrograms/kg, dihydrochloride): about 76%
- percentage mean inhibition of LPS-induced pulmonary neutrophilia ([1]; about 300 micrograms/kg): about 74%

Structure (SMILES): COc1ccc(C2CNC(=O)NC2)cc1O[C@H]1C[C@@H]2CC[C@H]1C2 [CP80,633]
- inflammatory parameters in atopic dermatitis patients ([2]; 0.5% ointment, twice daily topical application): reductions of inflammatory parameters

Structure (SMILES): CCc1nc2c(cnn2CC)c(NC2CCOCC2)c1CNC(=O)c1ccc(NC(=O)CCCCCCCN(C)CCO)cc1 [Example 1B, N-{[1,6-diethyl-4-(tetrahydro-2H-pyran-4-ylamino)-1H-pyrazolo[3,4-b]pyridin-5-yl]methyl}-4-({8-[(2-hydroxyethyl)(methyl)amino]octanoyl}amino)benzamide]
- percentage mean inhibition of LPS-induced pulmonary neutrophilia ([1]; about 10 micrograms/kg): about 29%
- percentage mean inhibition of LPS-induced pulmonary neutrophilia ([1]; about 30 micrograms/kg): about 75%
- percentage mean inhibition of LPS-induced pulmonary neutrophilia ([1]; about 100 micrograms/kg): about 59%

Structure (SMILES): Nc1nc2c([nH]1)c(=O)n(CC1CC1)c(=O)n2CC1CC1 [cipamfylline]
- effectiveness in the treatment of atopic dermatitis patients ([2]; 0.15% cream versus vehicle and hydrocortisone 17-butyrate (0.1%) cream): significantly more effective than vehicle, but significantly less effective than hydrocortisone 17-butyrate (0.1%) cream

Structure (SMILES): COc1ccc([C@]2(C#N)CC[C@@H](C(=O)O)CC2)cc1OC1CCCC1 [cilomilast]
- forced expiratory volume in 1s (FEV1) in COPD patients ([3]; 15 mg orally twice daily): appears to improve forced expiratory volume in 1s (FEV1)
- antiinflammatory effects in COPD patients ([3]; human, in vivo): appears to have anti-inflammatory effects; also recorded: appears to have antiinflammatory effects

Structure (SMILES): CCc1nc2c(cnn2CC)c(NC2CCOCC2)c1CNC(=O)c1ccc(NC(=O)CCCCCCCN(C)CCO)cc1 [Example 1A2, N-{[1,6-diethyl-4-(tetrahydro-2H-pyran-4-ylamino)-1H-pyrazolo[3,4-b]pyridin-5-yl]methyl}-4-({8-[(2-hydroxyethyl)(methyl)amino]octanoyl}amino)benzamide monohydrochloride]
- percentage inhibition (arithmetic mean) of LPS-induced nasal neutrophilia ([4]; about 1 micrograms/kg): essentially no inhibition
- percentage inhibition (arithmetic mean) of LPS-induced nasal neutrophilia ([4]; about 3 micrograms/kg): small and non-statistically-significant inhibition
- percentage inhibition (arithmetic mean) of LPS-induced nasal neutrophilia ([4]; about 10 micrograms/kg): about 62%
- percentage inhibition (arithmetic mean) of LPS-induced nasal neutrophilia ([4]; about 100 micrograms/kg): about 79%
- arithmetic mean percentage inhibition of LPS-induced pulmonary neutrophilia ([1]; about 10 micrograms/kg): about 29%
- arithmetic mean percentage inhibition of LPS-induced pulmonary neutrophilia ([1]; about 30 micrograms/kg): about 44%
- arithmetic mean percentage inhibition of LPS-induced pulmonary neutrophilia ([1]; about 100 micrograms/kg): about 39%
- arithmetic mean percentage inhibition of LPS-induced pulmonary neutrophilia ([1]; about 300 micrograms/kg): about 55%

Structure (SMILES): O=C(Nc1c(Cl)cncc1Cl)c1ccc(OC(F)F)c(OCC2CC2)c1 [roflumilast]
- FEV1 in COPD patients ([3]; human, in vivo): appears to show small improvements in FEV1
- rhinal airflow during the treatment period (compared to placebo) [5]: effective in improving rhinal airflow

Structure (SMILES): CCc1nc2c(cnn2CC)c(NC2CCOCC2)c1CNC(=O)c1ccc(NC(=O)CCCCCCCN(C)CCO)cc1 [N-{[1,6-diethyl-4-(tetrahydro-2H-pyran-4-ylamino)-1H-pyrazolo[3,4-b]pyridin-5-yl]methyl}-4-({8-[(2-hydroxyethyl)(methyl)amino]octanoyl}amino)benzamide]
- duration of action ([1]; after i.t. administration to the rat as a dry powder): 4 h
- duration of action ([1]; after i.t. administration to the rat as an aqueous solution): ≥ 2 h
